# Key:
# SIK3 = SIK3 (Homo sapiens (Human), UniProt Q9Y2K2); test: Percent activity against SIK3 at 1 μM; type: biochemical
# AAK1 = AAK1 (Homo sapiens (Human), UniProt Q2M2I8); test: KINOMEscan; type: binding; details: 1 uM
# ADCK4 = ADCK4 (Homo sapiens (Human), UniProt Q96D53); test: KINOMEscan; type: binding; details: 1 uM
# AKT1 = AKT1 (Homo sapiens (Human), UniProt P31749); test: KINOMEscan; type: binding; details: 1 uM
# AKT3 = AKT3 (Homo sapiens (Human), UniProt Q9Y243); test: KINOMEscan; type: binding; details: 1 uM
# BRSK2 = BRSK2 (Homo sapiens (Human), UniProt Q8IWQ3); test: KINOMEscan; type: binding; details: 1 uM
# BTK = BTK (Homo sapiens (Human), UniProt Q06187); test: KINOMEscan; type: binding; details: 1 uM
# CAMKK1 = CAMKK1 (Homo sapiens (Human), UniProt Q8N5S9); test: KINOMEscan; type: binding; details: 1 uM
# CDK7 = CDK7 (Homo sapiens (Human), UniProt P50613); test: KINOMEscan; type: binding; details: 1 uM
# DAPK1 = DAPK1 (Homo sapiens (Human), UniProt P53355); test: KINOMEscan; type: binding; details: 1 uM
# DCAMKL1 = DCAMKL1 (Homo sapiens (Human), UniProt O15075); test: KINOMEscan; type: binding; details: 1 uM
# DDR2 = DDR2 (Homo sapiens (Human), UniProt Q16832); test: KINOMEscan; type: binding; details: 1 uM
# DYRK1A = DYRK1A (Homo sapiens (Human), UniProt Q13627); test: KINOMEscan; type: binding; details: 1 uM
# [1] = target: EGFR (L747-E749del, A750P) (Homo sapiens (Human), UniProt P00533, A750P/DEL747-749); test: KINOMEscan; type: binding; details: 1 uM
# [2] = target: EGFR (L747-S752del, P753S) (Homo sapiens (Human), UniProt P00533, DEL747-752/P753S); test: KINOMEscan; type: binding; details: 1 uM
# ERK1 = ERK1 (Homo sapiens (Human), UniProt P27361); test: KINOMEscan; type: binding; details: 1 uM
# ERK5 = ERK5 (Homo sapiens (Human), UniProt Q13164); test: KINOMEscan; type: binding; details: 1 uM
# FAK = FAK (Homo sapiens (Human), UniProt Q05397); test: KINOMEscan; type: binding; details: 1 uM
# FGFR3 = FGFR3 (Homo sapiens (Human), UniProt P22607); test: KINOMEscan; type: binding; details: 1 uM
# IRAK1 = IRAK1 (Homo sapiens (Human), UniProt P51617); test: KINOMEscan; type: binding; details: 1 uM
# LRRK2 (G2019S) = LRRK2 (G2019S) (Homo sapiens (Human), UniProt Q5S007, G2019S); test: KINOMEscan; type: binding; details: 1 uM
# MAP4K5 = MAP4K5 (Homo sapiens (Human), UniProt Q9Y4K4); test: KINOMEscan; type: binding; details: 1 uM
# NEK2 = NEK2 (Homo sapiens (Human), UniProt P51955); test: KINOMEscan; type: binding; details: 1 uM
# p38-beta = p38-beta (Homo sapiens (Human), UniProt Q15759); test: KINOMEscan; type: binding; details: 1 uM
# p38-delta = p38-delta (Homo sapiens (Human), UniProt O15264); test: KINOMEscan; type: binding; details: 1 uM
# PIK3CA (I800L) = PIK3CA (I800L) (Homo sapiens (Human), UniProt P42336, I800L); test: KINOMEscan; type: binding; details: 1 uM
# PIK3CB = PIK3CB (Homo sapiens (Human), UniProt P42338); test: KINOMEscan; type: binding; details: 1 uM
# PKAC-alpha = PKAC-alpha (Homo sapiens (Human), UniProt P17612); test: KINOMEscan; type: binding; details: 1 uM
# PKMYT1 = PKMYT1 (Homo sapiens (Human), UniProt Q99640); test: KINOMEscan; type: binding; details: 1 uM
# PLK2 = PLK2 (Homo sapiens (Human), UniProt Q9NYY3); test: KINOMEscan; type: binding; details: 1 uM
# PRKCE = PRKCE (Homo sapiens (Human), UniProt Q02156); test: KINOMEscan; type: binding; details: 1 uM
# QSK = QSK (Homo sapiens (Human), UniProt Q9Y2K2); test: KINOMEscan; type: binding; details: 1 uM
# ROCK2 = ROCK2 (Homo sapiens (Human), UniProt O75116); test: KINOMEscan; type: binding; details: 1 uM
# [3] = target: RPS6KA5 (Kin.Dom.2-C-terminal) (Homo sapiens (Human), UniProt O75582); test: KINOMEscan; type: binding; details: 1 uM
# [4] = target: RSK1 (Kin.Dom.1-N-terminal) (Homo sapiens (Human), UniProt Q15418); test: KINOMEscan; type: binding; details: 1 uM
# SRPK3 = SRPK3 (Homo sapiens (Human), UniProt Q9UPE1); test: KINOMEscan; type: binding; details: 1 uM
# STK33 = STK33 (Homo sapiens (Human), UniProt Q9BYT3); test: KINOMEscan; type: binding; details: 1 uM
# TGFBR1 = TGFBR1 (Homo sapiens (Human), UniProt P36897); test: KINOMEscan; type: binding; details: 1 uM
# WNK3 = WNK3 (Homo sapiens (Human), UniProt Q9BYP7); test: KINOMEscan; type: binding; details: 1 uM
# YSK4 = YSK4 (Homo sapiens (Human), UniProt Q56UN5); test: KINOMEscan; type: binding; details: 1 uM
# Sequence of SIK3 (Q9Y2K2 whole entry): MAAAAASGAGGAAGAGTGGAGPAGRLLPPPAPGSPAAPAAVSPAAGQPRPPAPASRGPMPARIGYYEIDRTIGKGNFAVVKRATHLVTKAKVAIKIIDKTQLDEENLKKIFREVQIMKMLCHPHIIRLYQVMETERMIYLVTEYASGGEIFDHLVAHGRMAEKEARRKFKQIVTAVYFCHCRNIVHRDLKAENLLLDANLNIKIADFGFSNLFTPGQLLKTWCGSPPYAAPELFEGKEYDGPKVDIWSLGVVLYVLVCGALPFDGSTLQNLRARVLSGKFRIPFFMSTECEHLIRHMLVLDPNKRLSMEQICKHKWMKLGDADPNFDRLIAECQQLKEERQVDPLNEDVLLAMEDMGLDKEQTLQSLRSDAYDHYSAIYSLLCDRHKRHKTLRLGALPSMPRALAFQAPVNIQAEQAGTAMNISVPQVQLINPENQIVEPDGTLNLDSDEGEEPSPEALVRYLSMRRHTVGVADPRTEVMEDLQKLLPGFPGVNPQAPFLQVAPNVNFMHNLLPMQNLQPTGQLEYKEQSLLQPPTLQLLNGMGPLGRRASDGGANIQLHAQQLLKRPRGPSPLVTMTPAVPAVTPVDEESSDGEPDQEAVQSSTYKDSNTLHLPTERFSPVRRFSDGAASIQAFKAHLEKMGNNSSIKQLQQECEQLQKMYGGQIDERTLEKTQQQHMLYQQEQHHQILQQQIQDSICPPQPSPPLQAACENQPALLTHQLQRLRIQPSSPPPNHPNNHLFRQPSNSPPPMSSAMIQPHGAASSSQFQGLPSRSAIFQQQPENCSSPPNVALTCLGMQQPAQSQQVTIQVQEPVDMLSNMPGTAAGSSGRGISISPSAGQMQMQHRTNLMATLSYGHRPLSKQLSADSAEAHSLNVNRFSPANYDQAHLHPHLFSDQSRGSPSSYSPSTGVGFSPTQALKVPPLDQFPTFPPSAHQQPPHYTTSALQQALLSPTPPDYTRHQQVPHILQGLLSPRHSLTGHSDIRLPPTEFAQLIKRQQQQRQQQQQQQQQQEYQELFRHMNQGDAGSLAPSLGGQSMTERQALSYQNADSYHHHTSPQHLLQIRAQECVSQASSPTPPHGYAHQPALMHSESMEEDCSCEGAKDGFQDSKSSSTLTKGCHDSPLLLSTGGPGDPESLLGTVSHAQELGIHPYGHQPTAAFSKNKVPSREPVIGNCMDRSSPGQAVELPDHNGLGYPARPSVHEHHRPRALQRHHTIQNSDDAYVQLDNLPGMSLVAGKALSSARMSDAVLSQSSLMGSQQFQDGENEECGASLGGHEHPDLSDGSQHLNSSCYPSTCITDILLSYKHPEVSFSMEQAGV
# Sequence of DAPK1 (P53355 whole entry): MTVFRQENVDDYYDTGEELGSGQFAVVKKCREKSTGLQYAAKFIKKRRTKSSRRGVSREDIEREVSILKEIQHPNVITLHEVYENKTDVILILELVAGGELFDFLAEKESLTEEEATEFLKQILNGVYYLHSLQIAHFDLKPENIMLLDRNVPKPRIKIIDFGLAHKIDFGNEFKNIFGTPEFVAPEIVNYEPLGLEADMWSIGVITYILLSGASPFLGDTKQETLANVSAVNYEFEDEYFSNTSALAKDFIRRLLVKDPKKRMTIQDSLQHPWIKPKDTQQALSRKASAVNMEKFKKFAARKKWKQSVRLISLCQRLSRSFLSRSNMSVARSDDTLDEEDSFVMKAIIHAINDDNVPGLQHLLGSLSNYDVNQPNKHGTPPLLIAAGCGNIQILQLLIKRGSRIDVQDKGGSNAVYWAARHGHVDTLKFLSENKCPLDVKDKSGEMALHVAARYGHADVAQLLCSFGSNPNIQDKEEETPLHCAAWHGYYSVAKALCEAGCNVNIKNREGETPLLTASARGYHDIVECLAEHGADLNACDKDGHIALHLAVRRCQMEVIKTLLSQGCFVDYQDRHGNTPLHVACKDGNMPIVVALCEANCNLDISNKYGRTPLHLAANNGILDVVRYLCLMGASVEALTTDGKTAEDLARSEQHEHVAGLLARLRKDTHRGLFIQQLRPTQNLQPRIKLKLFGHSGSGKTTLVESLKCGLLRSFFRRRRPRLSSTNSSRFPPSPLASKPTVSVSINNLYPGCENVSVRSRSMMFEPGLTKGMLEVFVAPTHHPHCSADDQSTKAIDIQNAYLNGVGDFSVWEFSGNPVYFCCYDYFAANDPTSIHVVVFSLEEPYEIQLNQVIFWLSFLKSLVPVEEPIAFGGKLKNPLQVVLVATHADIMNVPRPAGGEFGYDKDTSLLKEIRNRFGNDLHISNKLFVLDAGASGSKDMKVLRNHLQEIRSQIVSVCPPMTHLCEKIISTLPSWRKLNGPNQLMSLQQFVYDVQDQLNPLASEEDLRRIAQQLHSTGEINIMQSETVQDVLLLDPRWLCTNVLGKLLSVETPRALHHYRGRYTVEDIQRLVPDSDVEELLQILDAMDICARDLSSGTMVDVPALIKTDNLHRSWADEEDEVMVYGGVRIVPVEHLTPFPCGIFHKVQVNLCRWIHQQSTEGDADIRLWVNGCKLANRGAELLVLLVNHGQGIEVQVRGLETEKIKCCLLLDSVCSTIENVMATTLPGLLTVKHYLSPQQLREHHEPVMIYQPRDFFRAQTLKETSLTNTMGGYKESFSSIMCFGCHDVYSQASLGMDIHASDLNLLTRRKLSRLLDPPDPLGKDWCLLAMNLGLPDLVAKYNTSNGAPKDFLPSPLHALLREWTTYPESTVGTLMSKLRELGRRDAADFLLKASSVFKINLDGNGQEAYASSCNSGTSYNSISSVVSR
# Sequence of RSK1 (Kin.Dom.1-N-terminal) (Q15418 62-321): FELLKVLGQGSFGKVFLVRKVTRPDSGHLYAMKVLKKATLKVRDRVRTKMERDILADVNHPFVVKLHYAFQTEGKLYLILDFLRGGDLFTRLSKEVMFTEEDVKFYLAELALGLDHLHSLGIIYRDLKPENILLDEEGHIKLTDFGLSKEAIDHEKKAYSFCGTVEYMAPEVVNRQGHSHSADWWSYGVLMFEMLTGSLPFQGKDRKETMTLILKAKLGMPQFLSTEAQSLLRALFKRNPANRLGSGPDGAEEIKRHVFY
# Sequence of BRSK2 (Q8IWQ3 whole entry): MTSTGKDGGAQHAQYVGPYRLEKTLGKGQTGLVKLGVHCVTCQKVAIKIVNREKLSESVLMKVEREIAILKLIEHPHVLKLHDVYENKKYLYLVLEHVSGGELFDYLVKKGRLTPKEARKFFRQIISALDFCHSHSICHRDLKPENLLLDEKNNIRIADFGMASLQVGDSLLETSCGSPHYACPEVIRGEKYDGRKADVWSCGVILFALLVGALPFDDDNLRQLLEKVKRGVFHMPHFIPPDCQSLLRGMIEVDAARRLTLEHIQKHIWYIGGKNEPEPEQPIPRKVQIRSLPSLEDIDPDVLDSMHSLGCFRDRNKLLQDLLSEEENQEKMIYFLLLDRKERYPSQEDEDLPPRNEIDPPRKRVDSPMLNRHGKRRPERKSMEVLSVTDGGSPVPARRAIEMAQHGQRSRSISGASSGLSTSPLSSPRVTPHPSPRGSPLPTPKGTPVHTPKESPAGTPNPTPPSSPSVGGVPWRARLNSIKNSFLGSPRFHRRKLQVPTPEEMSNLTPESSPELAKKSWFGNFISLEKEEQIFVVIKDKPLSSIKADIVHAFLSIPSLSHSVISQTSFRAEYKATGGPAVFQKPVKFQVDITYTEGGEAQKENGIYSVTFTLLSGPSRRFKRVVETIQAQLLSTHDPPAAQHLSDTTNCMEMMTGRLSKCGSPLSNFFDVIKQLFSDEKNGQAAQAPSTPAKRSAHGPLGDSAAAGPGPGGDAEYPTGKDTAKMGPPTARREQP
# Sequence of AAK1 (Q2M2I8 whole entry): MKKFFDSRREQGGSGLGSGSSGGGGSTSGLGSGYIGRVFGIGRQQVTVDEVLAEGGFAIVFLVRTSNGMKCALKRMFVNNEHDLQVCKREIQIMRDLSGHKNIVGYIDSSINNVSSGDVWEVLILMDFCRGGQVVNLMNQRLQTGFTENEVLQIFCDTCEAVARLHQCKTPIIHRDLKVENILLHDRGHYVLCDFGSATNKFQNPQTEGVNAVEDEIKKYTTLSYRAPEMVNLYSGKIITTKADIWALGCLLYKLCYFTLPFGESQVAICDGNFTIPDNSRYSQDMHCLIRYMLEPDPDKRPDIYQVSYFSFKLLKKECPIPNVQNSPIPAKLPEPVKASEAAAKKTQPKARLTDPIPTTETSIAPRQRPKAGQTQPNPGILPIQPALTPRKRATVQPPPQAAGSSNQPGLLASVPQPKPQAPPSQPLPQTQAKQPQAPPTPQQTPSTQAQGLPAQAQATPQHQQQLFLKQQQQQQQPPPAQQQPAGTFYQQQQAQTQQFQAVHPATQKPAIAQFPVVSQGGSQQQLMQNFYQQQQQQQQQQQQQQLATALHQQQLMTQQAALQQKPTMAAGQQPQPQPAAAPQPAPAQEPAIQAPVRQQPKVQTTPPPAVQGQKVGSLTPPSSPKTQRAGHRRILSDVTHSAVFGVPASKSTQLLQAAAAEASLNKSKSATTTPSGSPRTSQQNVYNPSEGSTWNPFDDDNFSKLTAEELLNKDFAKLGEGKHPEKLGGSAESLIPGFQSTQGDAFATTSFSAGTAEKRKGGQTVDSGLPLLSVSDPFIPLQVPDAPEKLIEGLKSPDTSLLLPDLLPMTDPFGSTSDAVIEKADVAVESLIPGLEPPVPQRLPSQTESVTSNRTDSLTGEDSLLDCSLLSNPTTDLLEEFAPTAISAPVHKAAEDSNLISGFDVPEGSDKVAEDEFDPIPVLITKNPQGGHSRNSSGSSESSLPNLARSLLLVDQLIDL
# Sequence of p38-beta (Q15759 whole entry): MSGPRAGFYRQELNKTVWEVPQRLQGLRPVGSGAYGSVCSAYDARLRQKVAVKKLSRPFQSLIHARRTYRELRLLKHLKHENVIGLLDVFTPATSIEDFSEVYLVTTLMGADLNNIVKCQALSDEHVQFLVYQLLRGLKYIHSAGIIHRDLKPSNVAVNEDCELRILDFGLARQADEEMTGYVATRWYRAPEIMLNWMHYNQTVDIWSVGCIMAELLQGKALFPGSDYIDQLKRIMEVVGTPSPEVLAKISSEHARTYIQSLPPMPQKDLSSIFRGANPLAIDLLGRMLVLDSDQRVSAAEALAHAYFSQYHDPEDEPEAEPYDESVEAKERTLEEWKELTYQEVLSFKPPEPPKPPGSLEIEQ
smiles,measurement,setting,value
COc1ccc(N2C(=O)N(c3c(C)cccc3C)Cc3cnc(Nc4ccc(N5CCN(C)CC5)cc4)nc32)c(OC)c1 [HG-11-136-01],Enzyme activity at 1 μM (%) SIK3,SIK3; 1 μM,9%
same,SIK3 % ACTIVITY,"SIK3; compound at 1 μM, approximate Km for ATP",9%
same,KINOMEscan AAK1,AAK1,13
same,KINOMEscan ADCK4,ADCK4,44
same,KINOMEscan AKT1,AKT1,100
same,KINOMEscan AKT3,AKT3,100
same,KINOMEscan BRSK2,BRSK2,91
same,KINOMEscan BTK,BTK,0.05
same,KINOMEscan CAMKK1,CAMKK1,94
same,KINOMEscan CDK7,CDK7,60
same,KINOMEscan DAPK1,DAPK1,63
same,KINOMEscan DCAMKL1,DCAMKL1,51
same,KINOMEscan DDR2,DDR2,1.6
same,KINOMEscan DYRK1A,DYRK1A,30
same,"KINOMEscan EGFR (L747-E749del, A750P)",[1],0.35
same,"KINOMEscan EGFR (L747-S752del, P753S)",[2],0.95
same,KINOMEscan ERK1,ERK1,100
same,KINOMEscan ERK5,ERK5,84
same,KINOMEscan FAK,FAK,24
same,KINOMEscan FGFR3,FGFR3,0.95
same,KINOMEscan IRAK1,IRAK1,4.4
same,KINOMEscan LRRK2 (G2019S),LRRK2 (G2019S),6.6
same,KINOMEscan MAP4K5,MAP4K5,0.3
same,KINOMEscan NEK2,NEK2,75
same,KINOMEscan p38-beta,p38-beta,3.1
same,KINOMEscan p38-delta,p38-delta,100
same,KINOMEscan PIK3CA (I800L),PIK3CA (I800L),94
same,KINOMEscan PIK3CB,PIK3CB,92
same,KINOMEscan PKAC-alpha,PKAC-alpha,85
same,KINOMEscan PKMYT1,PKMYT1,42
same,KINOMEscan PLK2,PLK2,21
same,KINOMEscan PRKCE,PRKCE,61
same,KINOMEscan QSK,QSK,0.25
same,KINOMEscan ROCK2,ROCK2,89
same,KINOMEscan RPS6KA5 (Kin.Dom.2-C-terminal),[3],80
same,KINOMEscan RSK1 (Kin.Dom.1-N-terminal),[4],48
same,KINOMEscan SRPK3,SRPK3,70
same,KINOMEscan STK33,STK33,24
same,KINOMEscan TGFBR1,TGFBR1,33
same,KINOMEscan WNK3,WNK3,50
same,KINOMEscan YSK4,YSK4,0.4

# Reference: patent US11725011B2, “Bicyclic urea kinase inhibitors and uses thereof” (The Broad Institute, Inc., priority 2016, dated 2023)
